Source: US7435751B2, “7-Fluoro-1,3-dihydro-indol-2-one oxazolidinones as antibacterial agents” (priority 2005, dated 2008)
Values after ≈ are worked out from the molar mass of the structure shown.

Experiments:
S. pneumoniae SV1 SP-3 = assay: In vitro antibacterial activity against S. pneumoniae SV1 SP-3; type: cell-based; settings: Streptococcus pneumoniae, SV1SP3; strain SV1 SP-3
Description: (§1) The in vitro antibacterial activity of the compounds of the present invention may be assessed by following procedures recommended in (1) National Committee for Clinical Laboratory Standards (January 2003), Methods for dilution antimicrobial tests for bacteria that grow aerobically, Approved Standard (6th ed), M7-A6, NCCLS, Wayne, Pa.; (2) National Committee for Clinical Laboratory Standards (March 2001), Methods for antimicrobial susceptibility testing of anaerobic bacteria, Approved Standard (5th ed), M11-A4, NCCLS, Wayne, Pa.; (3) National Committee for Clinical Laboratory Standards (Jan. 2003), MIC testing supplemental tables, M100-S13 (for use with M7-A6), NCCLS, Wayne, Pa.; and (4) Murray P R, Baron E J, Jorgensen J H, et al. Manual of Clinical Microbiology (8th ed) Washington, D.C.: American Society for Microbiology Press, 2003. The antibacterial activity can be presented in the form of MIC value. The MIC value is the lowest concentration of drug which prevented macroscopically visible growth under the conditions of the test.

S. aureus UC-76 SA-1 = assay: In vitro antibacterial activity against S. aureus UC-76 SA-1; type: cell-based; settings: Staphylococcus aureus, UC76; strain UC-76 SA-1
Description: as §1

E. faecalis MGH-2 EF 1-1 = assay: In vitro antibacterial activity against E. faecalis MGH-2 EF 1-1; type: cell-based; settings: Enterococcus faecalis, MGH2EF11; strain MGH-2 EF 1-1
Description: as §1

E. faecium (VREF) = assay: In vitro antibacterial activity, MIC90 against E. faecium (VREF); type: cell-based; settings: Enterococcus faecium
Description: as §1

S. pneumoniae (LRSA) = assay: In vitro antibacterial activity, MIC90 against S. pneumoniae (LRSA); type: cell-based; settings: Streptococcus pneumoniae
Description: as §1

MAO-A = target: T1, MAO-A (Homo sapiens, UniProt P21397); assay: Monoamine oxidase A inhibition (conversion of MAO substrate to dihydropyridinium metabolite); type: biochemical; settings: substrate at Km 64 μM; MAO-A 0.01 mg/mL
T1 sequence (P21397 1-527): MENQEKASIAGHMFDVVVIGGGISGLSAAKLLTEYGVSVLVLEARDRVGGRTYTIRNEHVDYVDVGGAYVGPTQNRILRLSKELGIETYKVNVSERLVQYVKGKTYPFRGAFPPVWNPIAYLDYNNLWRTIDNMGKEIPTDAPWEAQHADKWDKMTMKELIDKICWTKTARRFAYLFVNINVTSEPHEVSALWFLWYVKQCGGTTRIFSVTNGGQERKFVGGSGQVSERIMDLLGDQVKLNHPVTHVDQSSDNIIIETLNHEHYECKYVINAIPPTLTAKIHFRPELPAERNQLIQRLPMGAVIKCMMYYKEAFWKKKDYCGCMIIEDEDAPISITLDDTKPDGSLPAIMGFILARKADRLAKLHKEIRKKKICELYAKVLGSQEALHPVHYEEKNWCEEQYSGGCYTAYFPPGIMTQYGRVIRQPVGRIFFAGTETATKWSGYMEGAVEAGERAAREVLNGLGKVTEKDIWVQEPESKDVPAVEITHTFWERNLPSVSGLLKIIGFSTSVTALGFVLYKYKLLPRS
Description: (§2) Following procedure may assess monoamine oxidase inhibition activity of the compounds of the present invention:
(§3) MAO-A and B inhibition were analyzed by measuring the inhibition of conversion of an MAO substrate, 1-methyl-4-(1-methyl-2-pyrryl)-1,2,3,6-tetrahydropyridine, to its dihydropyridinium metabolite (λ=421 nm). The substrate concentration was equal to the Km (64 μM for MAO-A and 43 μM for MAO-B). The MAO-A concentration was 0.01 mg/mL, and the MAO-B concentration was 0.008 mg/mL. Each inhibitor was tested at seven concentrations. Percent inhibition at each concentration was established relative to the uninhibited control rate, and the IC50 and Ki values were calculated.

MAO-B = target: T2, MAO-B (Homo sapiens, UniProt P27338); assay: Monoamine oxidase B inhibition (conversion of MAO substrate to dihydropyridinium metabolite); type: biochemical; settings: substrate at Km 43 μM; MAO-B 0.008 mg/mL
T2 sequence (P27338 1-520): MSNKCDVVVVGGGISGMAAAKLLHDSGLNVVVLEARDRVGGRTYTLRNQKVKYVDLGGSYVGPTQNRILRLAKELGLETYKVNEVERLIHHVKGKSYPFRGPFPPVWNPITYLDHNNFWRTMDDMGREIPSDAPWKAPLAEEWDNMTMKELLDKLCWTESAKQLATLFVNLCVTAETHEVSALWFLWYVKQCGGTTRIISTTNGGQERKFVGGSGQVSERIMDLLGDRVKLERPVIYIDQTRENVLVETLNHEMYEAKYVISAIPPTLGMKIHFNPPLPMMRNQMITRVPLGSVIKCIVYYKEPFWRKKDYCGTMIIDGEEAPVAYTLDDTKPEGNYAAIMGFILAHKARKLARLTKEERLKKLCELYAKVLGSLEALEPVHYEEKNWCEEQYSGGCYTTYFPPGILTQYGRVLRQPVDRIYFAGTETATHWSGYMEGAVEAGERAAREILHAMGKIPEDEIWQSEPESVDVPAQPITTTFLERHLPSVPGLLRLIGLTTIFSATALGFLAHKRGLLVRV
Description: as §2, §3

S. aureus (LORSA) = assay: In vitro antibacterial activity, MIC90 against S. aureus (LORSA); type: cell-based; settings: Staphylococcus aureus
Description: as §1

E. faecalis (VREF) = assay: In vitro antibacterial activity, MIC90 against E. faecalis (VREF); type: cell-based; settings: Enterococcus faecalis
Description: as §1

| Compound | MIC90 (S. pneumoniae SV1 SP-3) | MIC90 (S. aureus UC-76 SA-1) | MIC90 (E. faecalis MGH-2 EF 1-1) | MIC90 (E. faecium (VREF)) | MIC90 (S. pneumoniae (LRSA)) | Ki (MAO-A) | Ki (MAO-B) | MIC90 (S. aureus (LORSA)) | MIC90 (E. faecalis (VREF)) |
| --- | --- | --- | --- | --- | --- | --- | --- | --- | --- |
| COC(=O)NC[C@H]1CN(c2cc(F)c3c(c2)CC(=O)N3C2CC2)C(=O)O1 [Example 6, (S)-[3-(1-cyclopropyl-7-fluoro-2-oxo-2,3-dihydro-1H-indol-5-yl)-2-oxo-oxazolidin-5-ylmethyl]-carbamic acid methyl ester] | 8 µg/mL (≈ 22 µM) | 8 µg/mL (≈ 22 µM) | 8 µg/mL (≈ 22 µM) | – | – | – | – | – | – |
| COC(=O)NC[C@H]1CN(c2cc(F)c3c(c2)CC(=O)N3CCF)C(=O)O1 [Example 4, (S)-{3-[7-fluoro-1-(2-fluoro-ethyl)-2-oxo-2,3-dihydro-1H-indol-5-yl]-2-oxo-oxazolidin-5-ylmethyl}-carbamic acid methyl ester] | 4 µg/mL (≈ 10.8 µM) | 4 µg/mL (≈ 10.8 µM) | 2 µg/mL (≈ 5.42 µM) | – | – | – | – | – | – |
| COC(=O)NC[C@H]1CN(c2cc(F)c3c(c2)CC(=O)N3CC2CC2)C(=O)O1 [Example 7, (S)-[3-(1-cyclopropylmethyl-7-fluoro-2-oxo-2,3-dihydro-1H-indol-5-yl)-2-oxo-oxazolidin-5-ylmethyl]-carbamic acid methyl ester] | 4 µg/mL (≈ 10.6 µM) | 4 µg/mL (≈ 10.6 µM) | 4 µg/mL (≈ 10.6 µM) | – | – | – | – | – | – |

The next lines start with the values.

| MIC90 (S. pneumoniae SV1 SP-3) | MIC90 (S. aureus UC-76 SA-1) | MIC90 (E. faecalis MGH-2 EF 1-1) | MIC90 (E. faecium (VREF)) | MIC90 (S. pneumoniae (LRSA)) | Ki (MAO-A) | Ki (MAO-B) | MIC90 (S. aureus (LORSA)) | MIC90 (E. faecalis (VREF)) | Compound |
| --- | --- | --- | --- | --- | --- | --- | --- | --- | --- |
| – | – | – | 4 µg/mL (≈ 11.9 µM) | 4 µg/mL (≈ 11.9 µM) | 722 µM | 52.6 µM | 4 µg/mL (≈ 11.9 µM) | 4 µg/mL (≈ 11.9 µM) | COC(=O)NC[C@H]1CN(c2cc(F)c3c(c2)CC(=O)N3C)C(=O)O1 [Example 1, (5S)-[3-(7-fluoro-1-methyl-2-oxo-2,3-dihydro-1H-indol-5-yl)-2-oxo-oxazolidin-5-ylmethyl]-carbamic acid methyl ester] |
| 4 µg/mL (≈ 11.4 µM) | 4 µg/mL (≈ 11.4 µM) | 2 µg/mL (≈ 5.69 µM) | – | – | – | – | – | – | CCN1C(=O)Cc2cc(N3C[C@H](CNC(=O)OC)OC3=O)cc(F)c21 [Example 3, (S)-[3-(1-ethyl-7-fluoro-2-oxo-2,3-dihydro-1H-indol-5-yl)-2-oxo-oxazolidin-5-ylmethyl]-carbamic acid methyl ester] |
| 4 µg/mL (≈ 10.9 µM) | 8 µg/mL (≈ 21.9 µM) | 8 µg/mL (≈ 21.9 µM) | – | – | – | – | – | – | CCCN1C(=O)Cc2cc(N3C[C@H](CNC(=O)OC)OC3=O)cc(F)c21 [Example 5, (S)-[3-(7-fluoro-2-oxo-1-propyl-2,3-dihydro-1H-indol-5-yl)-2-oxo-oxazolidin-5-ylmethyl]-carbamic acid methyl ester] |
| – | – | – | 2 µg/mL (≈ 5.47 µM) | 2 µg/mL (≈ 5.47 µM) | > 500 µM | 3.17 µM | 4 µg/mL (≈ 10.9 µM) | 2 µg/mL (≈ 5.47 µM) | COC(=O)NC[C@H]1CN(c2cc(F)c3c(c2)CC(=O)N3C(C)C)C(=O)O1 [Example 2, (5S)-[3-(7-fluoro-1-isopropyl-2-oxo-2,3-dihydro-1H-indol-5-yl)-2-oxo-oxazolidin-5-ylmethyl]-carbamic acid methyl ester] |
